US20220160908A1, “CHELATORS AND METHODS OF MAKING AND USING SAME” (The University Of British Columbia, priority 2019, published 2022)
Like-named read-outs stand apart in the source and are kept apart here.

Experiments:
[1] = cited from earlier work
[2] = Complex formation equilibria with La(III): stability constants and pM; assay type: physicochemical
[3] = Protonation constants by combined potentiometric-spectrophotometric titrations; assay type: physicochemical; details: 25° C., l = […] (NaCl)
Text: The basicity of different ionizable and non-ionizable protons determine the extent of the competition between the metal ion and the protons to the binding sites of the chelator during metal complexation. Therefore, protonation constants must be considered when evaluating the chelator. […] The remaining four protonation constants were not determined as these sites deprotonated at a pH below the electrode threshold. As a result but without being bound by theory, during metal complexation which preferably occurs at or near physiological pH for pharmaceutical purposes, competition from those protonation processes would be negligible.
FIGS. 4A, 4B and 4C show the absorption bands of the species involved in the protonation equilibria mentioned above at different pH, while Table 2 presents the protonation constants calculated from the experimental data using the HypSpec2014^25 and Hyperquad2013^26 programs. The speciation plots of different species of H4py4pa in FIG. 4D were calculated from the protonation constants in Table 2 with Hyss software.^27
All potentiometric titrations were carried out with a Metrohm Titrando 809 and a Metrohm Dosino 800 with a Ross combined electrode. A 20 mL and 25° C. thermostated glass cell with an inlet-outlet tube for nitrogen gas (purified through a 10% NaOH solution to exclude any CO2 prior to and during the course of the titration) was used as a titration cell. The electrode was calibrated daily in hydrogen ion concentration by direct titration of HCl with freshly prepared NaOH solution and the results were analyzed with Gran procedure^29 in order to obtain the standard potential E° and the ionic product of water pKw at 25° C. and 0.16 M NaCl as a supporting electrolyte. Solutions were titrated with carbonate-free NaOH (0.16 M) that was standardized against freshly recrystallized potassium hydrogen phthalate.
In the study of complex formation equilibria, the determination of the stability constant of [La(H4py4pa)] species was carried out by two different methods. The first method used UV-Vis spectrophotometric measurements on a set of solutions containing 1:1 metal to ligand molar ratio ([H4py4pa]=[M]^3+˜1.33×10^−4 M) and different amounts of HCl in the spectral range 200-400 nm at 25° C. and 1 cm path length. The molar absorptivities of all the protonated species of H4py4pa calculated with HypSpec2014^25 from the protonation constant experiments were included in the calculations. […] The stability constants for the complexes formed by H4edta and La^3+ were taken from literature.^31 Direct pH-potentiometric titrations of the La^3+-H4py4pa system were also carried out. Metal solution was prepared by adding the atomic absorption (AA) standard metal ion solution to a H4py4pa solution of known concentration in the 1:1 metal to ligand molar ratio for La(III). Ligand and metal concentrations were in the range of 0.6-0.8×10^−4 M. The exact amount of acid present in the atomic standard metal solutions standards was determined by Gran's method^29 titrating equimolar solutions of La(III) and Na2H2-EDTA. […] Three replicates of each titration were performed for each system. Relying on the stability constant for the species La(Hpy4pa) obtained by the two different methods, the fitting of the direct potentiometric titrations was possible and yielding the stability constants in Table 3. All the potentiometric measurements were processed using the Hyperquad2013 software^26 while the obtained spectrophotometric data were processed with the HypSpec2014^25 program. Proton dissociation constants corresponding to hydrolysis of La(III) aqueous ion included in the calculations were taken from Baes and Mesmer.^32 The overall equilibrium (formation) constants log β referred to the overall equilibria: pM+qH+rL ⇄MpHqLr (the charges are omitted), where p might also be 0 in the case of protonation equilibria and q can be negative for hydroxide species. […]

[4] = ligand-ligand potentiometric competition with EDTA at l = […] (NaCl) and 25° C.
[5] = potentiometric titrations at l = […] (NaCl) and 25° C.

In the case of `O=C(O)c1cccc(CN2CCOCCOCCN(Cc3cccc(C(=O)O)n3)CCOCCOCC2)n1` [Compound H2macropa, N,N′-bis[(6-carboxy-2-pyridil)methyl]-4,13-diaza-18-crown-6], the “log K[La(macropa)]” value ([1]; 25° C., l=0.1 M (KCl)) is given as 14.99.

For `O=C(O)c1cccc(CN(Cc2cccc(CN(Cc3cccc(C(=O)O)n3)Cc3cccc(C(=O)O)n3)n2)Cc2cccc(C(=O)O)n2)n1` [Compound H4py4pa], the “pM (La^3+)” value ([2]; -log [M]free at [L] = 10 μM, [M] = 1 μM and pH = 7.4) was 21.0, the “log K, ML + H^+ ⇌ MHL” value ([2]; in-batch acidic spectrophotometric competition at 25° C., not evaluated at constant l) was 4.01(5) and the “log K, M(OH)L + H^+ ⇌ ML” value [2, 4] was 9.94(3). For the same compound, the “log K, ML + H^+ ⇌ MHL” value [2, 4] was 3.78(4), the “log K, M^3+ + L ⇌ ML” value [2, 4] was 20.37(2) and the “log K, M(OH)L + H^+ ⇌ ML” value [2, 5] was 9.96(4). The “log K, M^3+ + L ⇌ ML” value [2, 5] was 20.33(3), the “log K, H2L^2− + H^+ ⇌ H3L^− (pK9)” value [3] was 4.06 (2) and the “log K, H3L^− + H+ ⇌ H4L (pK8)” value [3] was 3.58 (2). The “log K, H4L + H^+ ⇌ H5L^+ (pK7)” value [3] was 2.71 (3), the “log K, H5L^+ + H^+ ⇌ H6L^2+ (pK6)” value [3] was 2.55 (4) and the “log K, H6L^2+ + H^+ ⇌ H7L^3+ (pK5)” value [3] was 2.31 (4). For the same compound, the “log K, HL^3− + H^+ ⇌ H2L^2− (pK10)” value [3] was 6.07 (1), the “log K, L^4− + H^+ ⇌ HL^3− (pK11)” value [3] was 6.96 (1) and the “log β, H2L^2− + H^+ ⇌ H3L^−” value [3] was 17.09 (2). For the same compound, the “log β, H3L^− + H+ ⇌ H4L” value [3] was 20.67 (2), the “log β, H4L + H^+ ⇌ H5L^+” value [3] was 23.38 (3) and the “log β, H5L^+ + H^+ ⇌ H6L^2+” value [3] was 25.93 (4). The “log β, H6L^2+ + H^+ ⇌ H7L^3+” value [3] was 28.24 (4), the “log β, HL^3− + H^+ ⇌ H2L^2−” value [3] was 13.03 (1) and the “log β, L^4− + H^+ ⇌ HL^3−” value [3] was 6.96 (1).

For `O=C(O)CN1CCN(CC(=O)O)CCN(CC(=O)O)CCN(CC(=O)O)CC1` [DOTA, 1,4,7,10-tetraazacyclododecane-1,4,7,10-tetraacetic acid], the “log K[La(DOTA)]” value ([1]; 25° C.) is given as 24.25 and the “pM (La^3+)” value ([1]; -log [M]free at [ligand]=10 μM, [M]=1 μM, pH=7.4) is given as 19.2.
